Where “and” joins values, the source holds several entries; their conditions need not be identical. Identical values can stand only once. Inconclusive results and toxic doses are left out. Rule as the data show it: active = T/C of 150% or more; inactive = T/C below 125%.
Test system: L1210 leukemia ip in BDF1 mice, survival T/C
Assay: NCI In Vivo Anticancer Drug Screen. Data for tumor model L1210 Leukemia (intraperitoneal) in B6D2F1 (BDF1) mice
Conditions: endpoint: mean survival time, higher = longer survival
In short: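 Each compound was tested against a transplantable tumor grown in mice. The endpoint was survival, with treated animals benchmarked against vehicle controls as a simple ratio.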

[1] = dose: 100.0 mg/kg/injection, schedule: Q01DX009 (ip), vehicle: Klucel (hydroxypropylcellulose) (HPC)
[2] = dose: 200.0 mg/kg/injection, schedule: Q01DX009 (ip), vehicle: Klucel (hydroxypropylcellulose) (HPC)
[3] = dose: 400.0 mg/kg/injection, schedule: Q01DX009 (ip), vehicle: Klucel (hydroxypropylcellulose) (HPC)
[4] = dose: 75.0 mg/kg/injection, schedule: Q01DX001 (ip), vehicle: saline
[5] = dose: 100.0 mg/kg/injection, schedule: Q04DX003 (ip), vehicle: Klucel (hydroxypropylcellulose) (HPC)
[6] = dose: 200.0 mg/kg/injection, schedule: Q04DX003 (ip), vehicle: Klucel (hydroxypropylcellulose) (HPC)
[7] = dose: 100.0 mg/kg/injection, schedule: Q01DX009 (ip), vehicle: saline
[8] = dose: 100.0 mg/kg/injection, schedule: Q04DX003 (ip), vehicle: saline
[9] = dose: 200.0 mg/kg/injection, schedule: Q01DX009 (ip), vehicle: saline
[10] = dose: 200.0 mg/kg/injection, schedule: Q04DX003 (ip), vehicle: saline
[11] = dose: 400.0 mg/kg/injection, schedule: Q01DX009 (ip), vehicle: saline
[12] = dose: 400.0 mg/kg/injection, schedule: Q04DX003 (ip), vehicle: saline
[13] = dose: 100.0 mg/kg/injection, schedule: Q01DX001 (ip), vehicle: saline
[14] = dose: 200.0 mg/kg/injection, schedule: Q01DX001 (ip), vehicle: saline
[15] = dose: 400.0 mg/kg/injection, schedule: Q01DX001 (ip), vehicle: saline
[16] = dose: 100.0 mg/kg/injection, schedule: Q01DX001 (ip), vehicle: Klucel (hydroxypropylcellulose) (HPC)
[17] = dose: 200.0 mg/kg/injection, schedule: Q01DX001 (ip), vehicle: Klucel (hydroxypropylcellulose) (HPC)
[18] = dose: 400.0 mg/kg/injection, schedule: Q01DX001 (ip), vehicle: Klucel (hydroxypropylcellulose) (HPC)
[19] = dose: 400.0 mg/kg/injection, schedule: Q04DX003 (ip), vehicle: Klucel (hydroxypropylcellulose) (HPC)

Measured: T/C

CC(OC(=O)c1ccc([N+](=O)[O-])cc1)C(C)(C)C (stereo not given)
inactive: dose: 100.0 mg/kg/injection, schedule: Q04DX002 (ip), vehicle: Klucel (hydroxypropylcellulose) (HPC) 109 % of control | dose: 200.0 mg/kg/injection, schedule: Q04DX002 (ip), vehicle: Klucel (hydroxypropylcellulose) (HPC) 123 % of control | dose: 400.0 mg/kg/injection, schedule: Q04DX002 (ip), vehicle: Klucel (hydroxypropylcellulose) (HPC) 113 % of control

O=C(OCCBr)c1ccc([N+](=O)[O-])cc1
inactive: dose: 50.0 mg/kg/injection, schedule: Q01DX009 (ip), vehicle: Klucel (hydroxypropylcellulose) (HPC) 100 % of control | [1] 106 % of control | [2] 97 % of control

CCOc1ccc(/C=C/c2ccc(OCC)cc2)cc1
inactive: [1] 90 % of control | [2] 90 % of control | [3] 93 % of control

ClC(Cl)=[C](Cl)[Hg][C](Cl)=C(Cl)Cl
inactive: dose: 0.39 mg/kg/injection, schedule: Q01DX009 (ip), vehicle: saline with Tween-80 96 % of control | dose: 0.78 mg/kg/injection, schedule: Q01DX009 (ip), vehicle: saline with Tween-80 97 % of control | dose: 1.56 mg/kg/injection, schedule: Q01DX009 (ip), vehicle: saline with Tween-80 93 % of control and 86 % of control

CCOP(=O)(OCC)c1cccc(Cl)c1
inactive: [4] 101 % of control

Cc1ccc2c(C)cc(=O)[nH]c2c1
inactive: dose: 100.0 mg/kg/injection, schedule: Q01DX001 (ip), vehicle: carboxymethylcellulose (CMC) 102 % of control | dose: 100.0 mg/kg/injection, schedule: Q01DX009 (ip), vehicle: saline with Tween-80 102 % of control | dose: 200.0 mg/kg/injection, schedule: Q01DX001 (ip), vehicle: carboxymethylcellulose (CMC) 91 % of control | dose: 200.0 mg/kg/injection, schedule: Q01DX009 (ip), vehicle: saline with Tween-80 101 % of control | dose: 400.0 mg/kg/injection, schedule: Q01DX001 (ip), vehicle: carboxymethylcellulose (CMC) 105 % of control | dose: 400.0 mg/kg/injection, schedule: Q01DX009 (ip), vehicle: saline with Tween-80 106 % of control

Cc1cc(OC(=O)Nc2cc(C(F)(F)F)ccc2Cl)ccc1Cl
inactive: [1] 98 % of control | [2] 104 % of control | [3] 95 % of control

COc1ccc(Cc2nc3ccc(Cl)cc3[nH]2)cc1
inactive: dose: 100.0 mg/kg/injection, schedule: Q04DX003 (ip), vehicle: other 101 % of control | dose: 200.0 mg/kg/injection, schedule: Q04DX003 (ip), vehicle: other 98 % of control | dose: 400.0 mg/kg/injection, schedule: Q04DX003 (ip), vehicle: other 98 % of control

CCC1(O)C(=O)OCc2c1cc(C)[nH]c2=O (stereo not given)
inactive: dose: 6.25 mg/kg/injection, schedule: Q04DX003 (ip), vehicle: Klucel (hydroxypropylcellulose) (HPC) 86 % of control | dose: 12.5 mg/kg/injection, schedule: Q04DX003 (ip), vehicle: Klucel (hydroxypropylcellulose) (HPC) 94 % of control | dose: 25.0 mg/kg/injection, schedule: Q04DX003 (ip), vehicle: Klucel (hydroxypropylcellulose) (HPC) 86 % of control | dose: 50.0 mg/kg/injection, schedule: Q04DX003 (ip), vehicle: Klucel (hydroxypropylcellulose) (HPC) 89 % of control | [5] 91 % of control | [6] 86 % of control

O=S(=O)(O)CCCCO
inactive: [7] 98 % of control | [8] 95 % of control | [9] 95 % of control | [10] 100 % of control | [11] 95 % of control | [12] 97 % of control

O=C(CCCC(=O)N/N=C/c1ccc(Cl)c([N+](=O)[O-])c1)N/N=C\c1ccc(Cl)c([N+](=O)[O-])c1
inactive: dose: 50.0 mg/kg/injection, schedule: Q01DX001 (ip), vehicle: saline 96 % of control | [13] 102 % of control | [14] 96 % of control | [15] 98 % of control

Cc1cc(N(C)C)nc(SCc2ccc(F)cc2)n1
inactive: dose: 200.0 mg/kg/injection, schedule: Q01DX Z (ip), vehicle: methylcellulose (MC) 96 % of control

COC(=O)CCCCCCCCCC(=O)OC
inactive: [16] 100 % of control | [1] 97 % of control | [17] 101 % of control | [2] 96 % of control | [18] 95 % of control | [3] 94 % of control

Cc1nc(SC(=N)N)nc2c1CCO2
inactive: [13] 96 % of control | [14] 97 % of control | [15] 88 % of control

CC1C2CCC(C2)C1CO (stereo not given)
inactive: [8] 97 % of control | [10] 101 % of control | [12] 101 % of control

NC(CS)(CS)C(=O)O
inactive: dose: 15.0 mg/kg/injection, schedule: Q01DX015 (ip), vehicle: carboxymethylcellulose (CMC) 107 % of control | dose: 30.0 mg/kg/injection, schedule: Q01DX015 (ip), vehicle: carboxymethylcellulose (CMC) 113 % of control | dose: 60.0 mg/kg/injection, schedule: Q01DX015 (ip), vehicle: carboxymethylcellulose (CMC) 120 % of control

CC(=O)Nc1ccc(Cc2ccc(Cl)cc2)cc1
inactive: [13] 95 % of control | [14] 98 % of control

CCCCCC(=O)NCC(=O)N1CCC(C(=O)NCCCCC(=O)OC)C1 (stereo not given)
inactive: [8] 97 % of control | [10] 94 % of control | [12] 86 % of control

O=C(c1ccccc1)c1cccnc1
inactive: dose: 100.0 mg/kg/injection, schedule: Q04DX003 (ip), vehicle: saline with Tween-80 101 % of control | dose: 200.0 mg/kg/injection, schedule: Q04DX003 (ip), vehicle: saline with Tween-80 101 % of control | dose: 400.0 mg/kg/injection, schedule: Q04DX003 (ip), vehicle: saline with Tween-80 104 % of control

COc1ccc(CC(=O)NCCc2ccc3cc(OC)c(OC)cc3c2)cc1OC
inactive: [7] 90 % of control | [9] 86 % of control | [11] 88 % of control

COC(=O)NS(=O)(=O)c1ccco1
inactive: [16] 92 % of control | [5] 100 % of control | [17] 98 % of control | [6] 106 % of control | [18] 101 % of control | [19] 89 % of control

CCS[S+](CC)CC
inactive: dose: 6.25 mg/kg/injection, schedule: Q01DX009 (ip), vehicle: saline with Tween-80 98 % of control | dose: 12.5 mg/kg/injection, schedule: Q01DX009 (ip), vehicle: saline with Tween-80 102 % of control

CCN(CC)CCN(C)CC(=O)Nc1ccccc1C
inactive: [4] 100 % of control | dose: 150.0 mg/kg/injection, schedule: Q01DX001 (ip), vehicle: saline 103 % of control | dose: 300.0 mg/kg/injection, schedule: Q01DX001 (ip), vehicle: saline 101 % of control

NC(N)=N/N=C\c1ccccc1/C=N/N=C(N)N
inactive: dose: 15.0 mg/kg/injection, schedule: Q01DX Z (ip), vehicle: saline 111 % of control | dose: 15.0 mg/kg/injection, schedule: Q01DX Z (oral), vehicle: saline 116 % of control | dose: 30.0 mg/kg/injection, schedule: Q01DX Z (ip), vehicle: saline 110 % of control | dose: 30.0 mg/kg/injection, schedule: Q01DX Z (oral), vehicle: saline 111 % of control | dose: 60.0 mg/kg/injection, schedule: Q01DX Z (oral), vehicle: saline 102 % of control | dose: 120.0 mg/kg/injection, schedule: Q01DX Z (oral), vehicle: saline 111 % of control

COC(=O)/C=C/c1cccc([N+](=O)[O-])c1
inactive: [13] 100 % of control | [14] 100 % of control | [15] 100 % of control

O=C(Nc1ccc(Cl)cc1)C(c1ccccc1)c1ccccc1
inactive: dose: 100.0 mg/kg/injection, schedule: Q04DX002 (ip), vehicle: saline with Tween-80 100 % of control | dose: 200.0 mg/kg/injection, schedule: Q04DX002 (ip), vehicle: saline with Tween-80 110 % of control | dose: 400.0 mg/kg/injection, schedule: Q04DX002 (ip), vehicle: saline with Tween-80 100 % of control

c1ccc2nc(N3CCCCC3)c(N3CCCCC3)nc2c1
inactive: dose: 222.0 mg/kg/injection, schedule: Q01DX Z (ip), vehicle: methylcellulose (MC) 108 % of control | dose: 333.0 mg/kg/injection, schedule: Q01DX Z (ip), vehicle: methylcellulose (MC) 96 % of control | dose: 500.0 mg/kg/injection, schedule: Q01DX Z (ip), vehicle: methylcellulose (MC) 92 % of control

COc1cccc(NC(=S)NNC(=S)NNc2ccccc2)c1
inactive: [1] 108 % of control | [2] 100 % of control | [3] 100 % of control

Nc1ccc(S(N)(=O)=O)cc1
inactive: [5] 114 % of control | [6] 95 % of control | [19] 92 % of control

Reference: PubChem BioAssay AID248 (DTP/NCI, 2004)
